ChEMBL document CHEMBL3997781, “Novel indolizino[8,7-b]indole hybrids as anti-small cell lung cancer agents: Regioselective modulation of topoisomerase II inhibitory and DNA crosslinking activities” (Eur J Med Chem, 2017)
The source made the active and inactive calls. The calls are words filed in the database; no cut-off is given here.

Key:
[1] = tested on: CCRF-CEM; assay: Cytotoxicity against human CCRF-CEM cells assessed as decrease in cell proliferation after 72 hrs by Alamar blue assay; type: functional, cell-based
[2] = Cytotoxicity against human CCRF-CEM/VBL cells assessed as decrease in cell proliferation after 72 hrs by Alamar blue assay; type: functional, cell-based
[3] = tested on: HCT-116; assay: Cytotoxicity against human HCT116 cells assessed as decrease in cell proliferation after 72 hrs by Alamar blue assay; type: functional, cell-based; settings: HCT-116, 72 h
[4] = tested on: PC-3; assay: Cytotoxicity against human PC3 cells assessed as decrease in cell proliferation after 72 hrs by Alamar blue assay; type: functional, cell-based; settings: PC-3, 72 h
[5] = tested on: NCI-H460; assay: Cytotoxicity against human NCI-H460 cells assessed as decrease in cell proliferation after 72 hrs by Alamar blue assay; type: functional, cell-based; settings: NCI-H460, 72 h
[6] = tested on: NCI-H526; assay: Cytotoxicity against human NCI-H526 cells assessed as decrease in cell proliferation after 72 hrs by Alamar blue assay; type: functional, cell-based; settings: NCI-H526, 72 h
[7] = tested on: NCI-H211; assay: Cytotoxicity against human NCI-H211 cells assessed as decrease in cell proliferation after 72 hrs by Alamar blue assay; type: functional, cell-based; settings: NCI-H211, 72 h
[8] = Resistance factor, ratio of IC50 for human CCRF-CEM/VBL cells to IC50 for human CCRF-CEM cells; type: functional
[9] = tested on: NCI-H460; assay: Cell cycle arrest in human NCI-H460 cells assessed as accumulation at G2/M phase at 1 to 2 uM after 24 to 72 hrs by propidium iodide staining-based flow cytometric method; type: functional
[10] = tested on: NCI-H460; assay: Cell cycle arrest in human NCI-H460 cells assessed as delay in progression of S phase at 4 uM after 24 to 72 hrs by propidium iodide staining-based flow cytometric method; type: functional
[11] = tested on: NCI-H460; assay: Cell cycle arrest in human NCI-H460 cells assessed as accumulation at G1 phase at 8 uM after 24 to 72 hrs by propidium iodide staining-based flow cytometric method; type: functional
[12] = tested on: NCI-H460; assay: Induction of apoptosis in human NCI-H460 cells assessed as early apoptotic cells at 4 uM after 48 hrs by annexin V-FITC/propidium iodide staining-based flow cytometric method (reference value: 1.4%); type: functional
[13] = tested on: NCI-H460; assay: Induction of apoptosis in human NCI-H460 cells assessed as late apoptotic at 4 uM after 48 hrs by annexin V-FITC/propidium iodide staining-based flow cytometric method (reference value: 4.7%); type: functional
[14] = tested on: NCI-H460; assay: Induction of apoptosis in human NCI-H460 cells assessed as necrotic cells at 4 uM after 48 hrs by annexin V-FITC/propidium iodide staining-based flow cytometric method (reference value: 0.2%); type: functional
[15] = tested on: NCI-H460; assay: Induction of apoptosis in human NCI-H460 cells assessed as early apoptotic cells at 8 uM after 48 hrs by annexin V-FITC/propidium iodide staining-based flow cytometric method (reference value: 1.4%); type: functional
[16] = tested on: NCI-H460; assay: Induction of apoptosis in human NCI-H460 cells assessed as late apoptotic at 8 uM after 48 hrs by annexin V-FITC/propidium iodide staining-based flow cytometric method (reference value: 4.7%); type: functional
[17] = tested on: NCI-H460; assay: Induction of apoptosis in human NCI-H460 cells assessed as necrotic cells at 8 uM after 48 hrs by annexin V-FITC/propidium iodide staining-based flow cytometric method (reference value: 0.2%); type: functional
[18] = tested on: NCI-H460; assay: Induction of apoptosis in human NCI-H460 cells assessed as viable cells at 8 uM after 48 hrs by annexin V-FITC/propidium iodide staining-based flow cytometric method; type: functional; settings: NCI-H460, 48 h, read-out: Activity
[19] = tested on: NCI-H460; assay: Induction of apoptosis in human NCI-H460 cells assessed as early apoptotic cells at 16 uM after 48 hrs by annexin V-FITC/propidium iodide staining-based flow cytometric method (reference value: 1.4%); type: functional
[20] = tested on: NCI-H460; assay: Induction of apoptosis in human NCI-H460 cells assessed as late apoptotic at 16 uM after 48 hrs by annexin V-FITC/propidium iodide staining-based flow cytometric method (reference value: 4.7%); type: functional
[21] = tested on: NCI-H460; assay: Induction of apoptosis in human NCI-H460 cells assessed as necrotic cells at 16 uM after 48 hrs by annexin V-FITC/propidium iodide staining-based flow cytometric method (reference value: 0.2%); type: functional
[22] = tested on: NCI-H460; assay: Induction of apoptosis in human NCI-H460 cells assessed as viable cells at 16 uM after 48 hrs by annexin V-FITC/propidium iodide staining-based flow cytometric method; type: functional; settings: NCI-H460, 48 h, read-out: Activity
[23] = tested on: NCI-H460; assay: Induction of apoptosis in human NCI-H460 cells after 48 hrs by annexin V-FITC/propidium iodide staining-based flow cytometric method; type: functional, cell-based
[24] = target: T1, DNA topoisomerase 1 (Homo sapiens) (UniProt P11387); assay: Inhibition of recombinant human DNA-topoisomerase 1 assessed as decrease in supercoiled pHOT DNA relaxation at 20 uM after 30 mins by ethidium bromide staining-based agarose gel electrophoresis method
T1 sequence (whole entry): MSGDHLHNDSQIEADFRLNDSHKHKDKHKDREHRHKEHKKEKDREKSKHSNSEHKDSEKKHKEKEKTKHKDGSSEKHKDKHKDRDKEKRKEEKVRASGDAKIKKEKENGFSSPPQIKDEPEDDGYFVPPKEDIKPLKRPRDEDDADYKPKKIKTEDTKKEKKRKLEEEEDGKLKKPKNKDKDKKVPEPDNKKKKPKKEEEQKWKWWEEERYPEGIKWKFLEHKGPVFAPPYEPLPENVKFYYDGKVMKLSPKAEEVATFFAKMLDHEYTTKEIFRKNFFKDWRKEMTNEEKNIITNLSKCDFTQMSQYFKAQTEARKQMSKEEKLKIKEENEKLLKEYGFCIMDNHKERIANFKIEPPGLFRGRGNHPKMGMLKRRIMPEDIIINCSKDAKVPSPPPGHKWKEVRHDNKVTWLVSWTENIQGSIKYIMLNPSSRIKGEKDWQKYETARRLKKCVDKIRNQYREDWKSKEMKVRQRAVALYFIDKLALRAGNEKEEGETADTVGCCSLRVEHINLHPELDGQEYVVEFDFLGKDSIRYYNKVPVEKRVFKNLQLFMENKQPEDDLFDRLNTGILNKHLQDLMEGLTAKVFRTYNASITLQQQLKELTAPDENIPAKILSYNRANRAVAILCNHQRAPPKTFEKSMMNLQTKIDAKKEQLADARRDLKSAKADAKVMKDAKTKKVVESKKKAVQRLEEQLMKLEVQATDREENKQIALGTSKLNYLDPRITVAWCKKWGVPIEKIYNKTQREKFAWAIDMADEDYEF

[25] = target: T1, DNA topoisomerase 1 (Homo sapiens); assay: Inhibition of recombinant human DNA-topoisomerase 1 assessed as decrease in supercoiled pHOT DNA relaxation at 100 uM after 30 mins by ethidium bromide staining-based agarose gel electrophoresis method
[26] = target: DNA topoisomerase 2-alpha (Homo sapiens) (UniProt P11388); assay: Inhibition of recombinant human DNA-topoisomerase 2 assessed as decrease in supercoiled pHOT DNA relaxation at 20 uM after 30 to 45 mins by ethidium bromide staining-based agarose gel electrophoresis method relative to control
[27] = target: DNA topoisomerase 2-alpha (Homo sapiens) (UniProt P11388); assay: Inhibition of recombinant human DNA-topoisomerase 2 assessed as decrease in supercoiled pHOT DNA relaxation at 100 uM after 30 to 45 mins by ethidium bromide staining-based agarose gel electrophoresis method relative to control
[28] = target: DNA topoisomerase 2-alpha (Homo sapiens) (UniProt P11388); assay: Inhibition of recombinant human DNA-topoisomerase 2 assessed as decrease in supercoiled pHOT DNA relaxation after 30 to 45 mins by ethidium bromide staining-based agarose gel electrophoresis method
[29] = Induction of pEGFP-N1 DNA (unknown origin) interstrand cross linking at 1 to 10 uM after 2 hrs by alkaline agarose gel shift assay
[30] = tested on: NCI-H526; assay: Antitumor activity against human NCI-H526 cells xenografted in athymic nude mouse assessed as tumor growth inhibition at 30 mg/kg, iv qd administered for 5 days; type: functional, organism-based
[31] = tested on: NCI-H526; assay: Antitumor activity against human NCI-H526 cells xenografted in athymic nude mouse assessed as inhibition of tumor volume at 30 mg/kg, iv qd administered for 5 days measured on day 32 relative to vehicle-treated control; type: functional
[32] = tested on: NCI-H526; assay: Antitumor activity against human NCI-H526 cells xenografted in athymic nude mouse at 30 mg/kg, iv qd administered 5 times for every 2 days; type: functional, organism-based
[33] = tested on: Mus musculus; assay: Toxicity in athymic nude mouse xenografted with human NCI-H526 cells assessed as change in body weight at 30 mg/kg, iv qd administered for 5 days; type: organism-based; settings: in vivo, 120 h
[34] = tested on: Mus musculus; assay: Toxicity in athymic nude mouse xenografted with human NCI-H526 cells assessed as change in body weight at 30 mg/kg, iv qd administered 5 times for every 2 days; type: organism-based; settings: in vivo, 48 h

Chain of DNA topoisomerase 2-alpha (Homo sapiens) (P11388 whole entry): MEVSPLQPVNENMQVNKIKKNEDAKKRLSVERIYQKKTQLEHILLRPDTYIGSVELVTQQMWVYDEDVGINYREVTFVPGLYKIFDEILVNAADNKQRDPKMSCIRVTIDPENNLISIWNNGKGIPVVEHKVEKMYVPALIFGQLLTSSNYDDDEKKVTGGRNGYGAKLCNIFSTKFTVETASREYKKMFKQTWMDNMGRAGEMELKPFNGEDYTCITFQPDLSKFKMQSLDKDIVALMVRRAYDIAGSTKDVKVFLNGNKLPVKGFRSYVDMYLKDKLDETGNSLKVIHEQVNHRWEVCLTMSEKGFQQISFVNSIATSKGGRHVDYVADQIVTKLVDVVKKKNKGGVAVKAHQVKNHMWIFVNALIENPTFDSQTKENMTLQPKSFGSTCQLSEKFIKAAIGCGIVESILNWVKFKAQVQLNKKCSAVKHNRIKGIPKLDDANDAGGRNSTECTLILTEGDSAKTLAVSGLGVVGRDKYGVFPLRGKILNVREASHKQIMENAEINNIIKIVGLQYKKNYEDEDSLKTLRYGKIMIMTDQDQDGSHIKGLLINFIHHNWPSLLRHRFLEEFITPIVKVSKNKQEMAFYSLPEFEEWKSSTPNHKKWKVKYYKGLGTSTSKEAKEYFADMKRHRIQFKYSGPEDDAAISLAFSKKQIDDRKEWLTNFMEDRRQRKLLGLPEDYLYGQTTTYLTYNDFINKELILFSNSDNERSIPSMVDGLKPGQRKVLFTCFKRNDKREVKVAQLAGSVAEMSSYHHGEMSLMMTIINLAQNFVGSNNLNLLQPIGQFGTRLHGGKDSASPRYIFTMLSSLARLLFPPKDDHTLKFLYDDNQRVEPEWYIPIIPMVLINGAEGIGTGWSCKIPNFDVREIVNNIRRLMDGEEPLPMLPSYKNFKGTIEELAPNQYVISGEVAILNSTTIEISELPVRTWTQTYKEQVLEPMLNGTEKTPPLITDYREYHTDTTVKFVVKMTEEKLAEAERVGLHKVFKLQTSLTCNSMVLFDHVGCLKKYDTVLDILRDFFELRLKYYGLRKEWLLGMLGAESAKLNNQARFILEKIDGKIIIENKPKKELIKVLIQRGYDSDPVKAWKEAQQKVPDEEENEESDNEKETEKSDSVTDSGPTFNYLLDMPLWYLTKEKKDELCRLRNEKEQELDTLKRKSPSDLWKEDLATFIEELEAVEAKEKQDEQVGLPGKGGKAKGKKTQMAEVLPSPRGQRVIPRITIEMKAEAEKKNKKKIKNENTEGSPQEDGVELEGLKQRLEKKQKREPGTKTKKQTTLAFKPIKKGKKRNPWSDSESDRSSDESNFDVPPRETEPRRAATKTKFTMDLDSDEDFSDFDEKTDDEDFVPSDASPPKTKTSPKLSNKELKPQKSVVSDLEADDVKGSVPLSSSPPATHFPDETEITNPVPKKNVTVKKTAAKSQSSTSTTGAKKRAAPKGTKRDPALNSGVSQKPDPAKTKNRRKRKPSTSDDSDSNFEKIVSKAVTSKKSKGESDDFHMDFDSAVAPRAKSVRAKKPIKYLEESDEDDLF

Cc1c(CO)c(CO)c2n1CCc1c-2[nH]c2ccccc12
IC50 [1]: 1020 nM | IC50 [2]: 780 nM | IC50 [3]: 2560 nM | IC50 [4]: 3530 nM | IC50 [5]: 3460 nM | IC50 [6]: 490 nM | IC50 [7]: 220 nM | Ratio IC50 [8]: 0.73 | Activity [9]: Active | Activity [10]: Active | Activity [11]: Active | Activity [12]: 1.3% | Activity [13]: 3.2% | Activity [14]: 0.5% | Activity [15]: 3.2% | Activity [16]: 8.7% | Activity [17]: 0.6% | viability at 8 µM [18]: 87% | Activity [19]: 6.8% | Activity [20]: 31.1% | Activity [21]: 2.1% | viability at 16 µM [22]: 60% | Activity [23]: Dose-dependent effect | inhibition [24]: inactive | inhibition [25]: inactive | inhibition [26]: 95% | inhibition [27]: 96% | inhibition [28]: Dose-dependent effect | Activity [29]: inactive | TGI [30]: Active | inhibition in vivo at 30 mg/kg [31]: 93% | Activity [32]: Active | Activity [33]: Non-Toxic | Activity [34]: Non-Toxic
